Data reported in PubChem BioAssay AID1959 (Broad Institute, 2009).
The source made the active and inactive calls.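 The calls were made as follows: active = growth-inhibition EC50 no more than tenfold above the top tested dose; inconclusive = flat fit between 30% and 70% inhibition, or unreliable fit; inactive = EC50 more than tenfold above the top tested dose.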

Tested on: E. coli NEB5alpha growth, BacTiter-Glo luminescence, 4 h
Test: Escherichia coli growth inhibition, dose response, counter-screen for MEX-5/POS-1 RNA-binding inhibitor project, luminescence, NEB5alpha (AID 1959);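 also: pUC19-transformed ampicillin-resistant cells grown in LB with ampicillin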

Structure (SMILES) | EC50
COC(=O)c1ccc(COc2ccc(/C=C(\C#N)c3nc4ccccc4[nH]3)cc2OC)o1 | > 11 µM (inactive)
CCN(CC)c1ccc(N=Cc2c(O)n(Cc3ccccc3)c(=O)[nH]c2=O)cc1 | > 11 µM (inactive)
C=CCOc1cccc(C2C(C(=O)c3ccc(C)o3)=C(O)C(=O)N2c2nccs2)c1 (centres undefined) | > 11 µM (inactive)
COC(=O)CCC(=O)OC1(C)C(=O)C2=CN(CCc3ccccn3)C(c3ccc(OC)cc3)=CC2=C(Br)C1=O (centres undefined) | > 11 µM (inactive)
COc1ccc2c(c1)c1nc3ccccc3nc1n2CCn1c(=O)oc2ccccc21 | > 11 µM (inactive)
CCOC(=O)c1c(/N=C/C2C(=O)NC(=S)NC2=O)sc(C)c1C | > 11 µM (inactive)
CCCCC1=CC2=CC(=O)C(C)(OC(=O)c3cnc4ccccc4n3)C(=O)C2=CO1 (centres undefined) | > 11 µM (inactive)
O=C(CC1Nc2ccccc2NC1=O)c1ccccc1 (centres undefined) | > 11 µM (inactive)
N#C/C(=C\N1CCN(Cc2ccc3c(c2)OCO3)CC1)c1nc2ccccc2s1 | > 11 µM (inactive)
Cc1ccc(N2C(=O)NC(=O)/C(=C\c3cc(C)n(-c4cc(C(=O)O)cc(C(=O)O)c4)c3C)C2=O)cc1 | > 11 µM (inactive)
O=C(O)CCC(=O)NCc1ccc2[nH]c3c(c2c1)CCCC3 | > 11 µM (inactive)
COc1cc(OC)c(C2C(C#N)=C(N)OC3=C2C(=O)CC(C)(C)C3)cc1OC (centres undefined) | > 11 µM (inactive)
Cc1cc(NC(=O)/C(C#N)=C/c2ccc(-c3ccc(SC(F)F)cc3)o2)n(-c2ccccc2)n1 | > 11 µM (inactive)
COc1ccccc1-n1c(O)c(/C=C2\C=Nc3ccccc32)c(=O)[nH]c1=O | > 11 µM (inactive)
CC1(OC(=O)C2CCCC2)C(=O)C=C2C=C(c3ccsc3)OC=C2C1=O (centres undefined) | > 11 µM (inactive)
CCc1ccc(N2C(=O)NC(=O)/C(=C\c3cc(C)n(-c4cc(C(=O)O)cc(C(=O)O)c4)c3C)C2=O)cc1 | > 11 µM (inactive)
CCn1nc(C)c(/C=C2\CCCC3=C2OC(N)=C(C#N)C3c2c(C)nn(CC)c2C)c1C (centres undefined) | > 11 µM (inactive)
C=CCOc1ccc(C2C(C(=O)c3ccco3)=C(O)C(=O)N2c2nnc(C)s2)cc1 (centres undefined) | > 11 µM (inactive)
CNc1ccc2nc3ccccc3[n+](C)c2c1 | > 11 µM (inactive)
CN1CC=C2C(C#N)=C(N)C(C#N)(C#N)C(c3cccc(Cl)c3Cl)C2C1 (centres undefined) | > 11 µM (inactive)
CCCNc1c(F)c(F)c2c(C)c3ccccc3nc2c1F | > 11 µM (inactive)
CC1(OC(=O)c2ccc(Cl)nc2)C(=O)C=C2C=C(c3ccsc3)OC=C2C1=O (centres undefined) | > 11 µM (inactive)
Oc1[nH]c2ccccc2c1N=Nc1ccccc1 | > 11 µM (inactive)
CCN(CC)C(=O)Cn1cc(C(=O)C(=O)N2CCc3ccccc32)c2ccccc21 | > 11 µM (inactive)

Structure (SMILES) | EC50
O=C(/C=C/Nc1ccc([N+](=O)[O-])cc1)c1ccc(Br)cc1 | > 11 µM (inactive)
COc1ccccc1NC(=S)NNC(=O)c1cc(C)n(C)n1 | > 11 µM (inactive)
O=C(/C=C/c1ccc([N+](=O)[O-])o1)NNC(=O)c1ccc(F)cc1 | 0.232 µM
COC(=O)c1[nH]c2cc(OC)c(OC)cc2c1/C=N/Nc1ccccc1 | > 11 µM (inactive)
COc1cc2ccccc2cc1C(=O)NC(=S)Nc1cc(C(=O)O)ccc1C | > 11 µM (inactive)
Fc1ccc(-c2nc3c(Cl)cc(C(F)(F)F)cn3c2Cl)cc1 | > 11 µM (inactive)
Cc1nc(S/C(C(=O)O)=C2/C(=O)Nc3ccccc32)n[nH]1 | > 11 µM (inactive)
CC1=CC(C#N)(C#N)C(C#N)(C#N)C(c2ccccc2)N1 (centres undefined) | > 11 µM (inactive)
COc1ccc(C(=O)/C=C/c2ccc(-c3ccccc3)cc2)cc1CSCC(=O)O | > 11 µM (inactive)
CCn1c2ccccc2c(=O)c2ccccc21 | > 11 µM (inactive)
CCN1C(=O)/C(=C2/C=Cc3ccccc3N2C)OC1=S | > 11 µM (inactive)
Cc1c(C(=O)O)cccc1-n1c(C)cc(/C=C(/C#N)C(=O)NCc2ccccc2)c1C | > 11 µM (inactive)
COc1ccc(/C=C2\SC(=S)N(CCCC(=O)NC3CCCC3)C2=O)cc1OC | > 11 µM (inactive)
COC(=O)c1ccc(-n2c(C)ccc2-c2ccccc2)cc1 | > 11 µM (inactive)
O=C(NNC(=O)c1cc(Cl)ccc1O)c1cccc(S(=O)(=O)N2CCOCC2)c1 | > 11 µM (inactive)
CC(C)c1ccc(C2C(C#N)=C(N)N3C(=C2C#N)Sc2ccccc23)cc1 (centres undefined) | > 11 µM (inactive)
CCCCN(C)C(=O)c1cccc(OC2CCN(CC(C)(C)C)CC2)c1 | > 11 µM (inactive)
CCOC(=O)Cc1csc(NC(=O)c2sc3nc4cc(C)ccc4cc3c2N)n1 | > 11 µM (inactive)
COc1ccc(C(=O)/C=C/c2ccc(N3CCCCC3)c([N+](=O)[O-])c2)c(OC)c1 | > 11 µM (inactive)
CCn1c(C)nc2cc(N)ccc21 | > 11 µM (inactive)
Cc1[nH]c2ccccc2c1/C=N/NC(=S)NC(C)C | > 11 µM (inactive)
Cc1[nH][nH]c(=O)c1N=Nc1ccc(S(N)(=O)=O)cc1 | > 11 µM (inactive)
CN(C)c1ccc(N=Cc2c(O)n(CCC3=CCCCC3)c(=O)[nH]c2=O)cc1 | > 11 µM (inactive)
Cn1c(O)c(/C=C2\C=c3ccccc3=NC2=O)c(=O)n(C)c1=O | > 11 µM (inactive)

Structure (SMILES) | EC50
O=C(O)c1cc(Cl)c2c(c1)[C@@H]1C=CC[C@@H]1[C@H](c1ccc(S(=O)(=O)N3CCOCC3)cc1)N2 | > 11 µM (inactive)
Cc1ccc(NC(=O)/C(C#N)=C/c2ccc(C)s2)c(C)c1 | > 11 µM (inactive)
Nc1nnc2c(n1)CCCC2 | > 11 µM (inactive)
CN(C)S(=O)(=O)c1cccc(NC(=S)N/N=C/c2ccc(O)c(O)c2O)c1 | > 11 µM (inactive)
COCCNC(=O)Cn1cc(/C=C2\C(=O)NC(=O)N(c3ccccc3F)C2=O)c2ccccc21 | > 11 µM (inactive)
O=C/C(=C\Nc1ccccn1)c1nc2cc(Cl)ccc2o1 | > 11 µM (inactive)
CCOC(=O)Cc1nc2ccccc2n(CC#N)c1=O | > 11 µM (inactive)
CCOP(=O)(OCC)C(Nc1cccc([N+](=O)[O-])c1)c1ccccc1 (centres undefined) | > 11 µM (inactive)
CN=c1scc(C)n1/N=C/c1ccc(O)c(O)c1O | > 11 µM (inactive)
CCOc1cc(N2CCOCC2)c(OCC)cc1NC(C)C(=O)N1CCN(CC)CC1 (centres undefined) | > 11 µM (inactive)
CSCC(C)N1CCC(n2nccc2NC(=O)CCCc2ccccc2)CC1 (centres undefined) | > 11 µM (inactive)
Oc1[nH]c2ccccc2c1N=Nc1cccc(Cl)c1 | > 11 µM (inactive)
CCOc1ccc(N2C(=O)/C(=C/c3ccco3)C(=O)NC2=S)cc1 | > 11 µM (inactive)
Cc1cc(/C=C(\C#N)C(=O)Nc2ccccc2)c(C)n1-c1ccc(C(=O)O)cc1 | > 11 µM (inactive)
COc1cccc(OCCCn2cc(/C=C3/C(=N)N4C=C(C)SC4=NC3=O)c3ccccc32)c1 | > 11 µM (inactive)
O=[N+]([O-])c1cccc(-c2cn3nc(-c4ccccc4)c(-c4ccccc4)nc3n2)c1 | > 11 µM (inactive)
O=C1NC(=O)C(=Cc2ccc(-c3ccc(S(=O)(=O)N4CCOCC4)cc3)o2)C(=O)N1 | > 11 µM (inactive)
COc1cc2c(cc1OC)-c1c(OC)c(OC)c(OC)c3ccnc(c13)C2=O | > 11 µM (inactive)
COc1ccc(C2OC34CCCCC3C(C#N)(C#N)C2(C#N)C(=N)O4)cc1 (centres undefined) | > 11 µM (inactive)
CCCCC1=CC2=CC(=O)C(C)(OC(=O)CC)C(=O)C2=CO1 (centres undefined) | > 11 µM (inactive)
Cc1ccc(N=Nc2c(O)[nH]c3ccc(F)cc23)cc1 | > 11 µM (inactive)
C=CCOc1cccc(C2C(C(=O)c3ccc(C)o3)=C(O)C(=O)N2c2nnc(C)s2)c1 (centres undefined) | > 11 µM (inactive)
COc1ccccc1C(=O)C1CCCN(C(=O)c2cccnc2SC)C1 (centres undefined) | > 11 µM (inactive)
Cc1noc(C)c1S(=O)(=O)NC1CCN(Cc2ccccc2)CC1 | > 11 µM (inactive)

Structure (SMILES) | EC50
CCCn1c(O)c(CN2CCCC(C)C2)c(C)c(C#N)c1=O (centres undefined) | > 11 µM (inactive)
CC(=O)Nc1ccc(N=Cc2nc(-c3ccc(C)cc3)oc2O)cc1 | > 11 µM (inactive)
CC(=O)N(C)c1ccc(N=NC2C(=O)N(C(N)=S)N=C2C)cc1 (centres undefined) | > 11 µM (inactive)
Cc1cc2c3c(c1C)C1(C(=O)N3C(C)(C)CC2C)C(C#N)=C(N)OC2=C1C(=O)CC(C)(C)C2 (centres undefined) | > 11 µM (inactive)
CC1CN(C2CC(C)(C)NC(C)(C)C2)CCC1=O (centres undefined) | > 11 µM (inactive)
COCC1CCN(C(=O)CC2C(=O)NCCN2Cc2cccc(Oc3ccccc3)c2)CC1 (centres undefined) | > 11 µM (inactive)
NC1=NC(=O)/C(=C/c2ccc(-c3ccc(S(N)(=O)=O)cc3)o2)S1 | > 11 µM (inactive)
CCOC(=O)C1=C2NC(=O)c3ccccc3N2C(=O)C1 | > 11 µM (inactive)
N=C1C(c2nc3ccccc3[nH]2)=C(O)CN1c1ccc(CC(=O)O)cc1 | > 11 µM (inactive)
COC(=O)/C=C1\C(=O)N(c2nc3ccccc3s2)C(=S)N1c1ccc(F)cc1 | > 11 µM (inactive)
COC(=O)c1c(=O)n(O)c2ccc(OC)cc2[n+]1[O-] | > 11 µM (inactive)
CCc1ccccc1N1C(=O)/C(=C/c2ccc(N3CCN(C)CC3)o2)C(=O)NC1=S | > 11 µM (inactive)
N#Cc1cc(NC2CCCC2)c([N+](=O)[O-])cc1C#N | > 11 µM (inactive)
CN1C(=O)NC(=O)/C(=C\c2ccc([N+](=O)[O-])o2)C1=O | > 11 µM (inactive)
CN(CC(=O)NCc1ccccn1)S(=O)(=O)c1ccc(Br)cc1 | > 11 µM (inactive)
C[C@@H]1O[C@@H](OC2C(O)C(OCCc3ccc(O)c(O)c3)OC(CO)C2OC(=O)/C=C/c2ccc(O)c(O)c2)[C@H](O)[C@H](O)[C@H]1O (some centres undefined) | > 11 µM (inactive)
CCN1C(=O)/C(=C2\SC(=S)N(NC(=O)c3ccccc3O)C2=O)c2ccccc21 | > 11 µM (inactive)
N=c1c(S(=O)(=O)c2ccc(Cl)cc2)cc2c(=O)n3ccccc3nc2n1C1CCCCC1 | > 11 µM (inactive)
CCOc1ccc(NC(=O)COc2ccccc2)c([N+](=O)[O-])c1 | > 11 µM (inactive)
O=C(N/N=C/c1ccc(-c2ccc([N+](=O)[O-])cc2)o1)c1cccnc1 | > 11 µM (inactive)
Oc1ccc(-c2csc(Nc3ccccn3)n2)cc1O | > 11 µM (inactive)
O=C(O)c1ccc2nc(-c3ccco3)c(-c3ccco3)nc2c1 | > 11 µM (inactive)
